Data taken from PubChem BioAssay (NCI).
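48-hour exposure; five concentrations; linearly interpolated endpoints. TGI is the concentration that stops growth completely.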

Tests used:
Assay in all cases: growth of human tumour cells (NCI), 48 h
[1] = system: SF-539 CNS
[2] = system: UACC-62 melanoma
[3] = system: MDA-MB-231 breast
[4] = system: BT-549 breast
[5] = system: RXF 393 renal
[6] = system: HL-60(TB) leukemia
[7] = system: EKVX NSCLC
[8] = system: MCF7 breast
[9] = system: OVCAR-4 ovarian
[10] = system: KM12 colon
[11] = system: SF-268 CNS
[12] = system: SK-MEL-2 melanoma
[13] = system: OVCAR-8 ovarian
[14] = system: HCT-116 colon
[15] = system: UO-31 renal
[16] = system: OVCAR-5 ovarian
[17] = system: U251 CNS
[18] = system: KM20L2 colon
[19] = system: DMS 273 small cell lung

| Compound | TGI [1] [µM] | TGI [2] [µM] | TGI [3] [µM] | TGI [4] [µM] | TGI [5] [µM] | TGI [6] [µM] | TGI [7] [µM] | TGI [8] [µM] | TGI [9] [µM] | TGI [10] [µM] | TGI [11] [µM] | TGI [12] [µM] | TGI [13] [µM] | TGI [14] [µM] | TGI [15] [µM] | TGI [16] [µM] | TGI [17] [µM] | TGI [18] [µM] | TGI [19] [µM] |
| --- | --- | --- | --- | --- | --- | --- | --- | --- | --- | --- | --- | --- | --- | --- | --- | --- | --- | --- | --- |
| COc1ccc2nc3cc([N+](=O)[O-])ccc3c(Nc3ccc(S(=O)(=O)Nc4ncccn4)cc3)c2c1 | > 100 | > 100 | > 100 | > 100 | > 100 | > 100 | > 100 | > 100 | > 100 | > 100 | > 100 | > 86.3 | > 100 | > 100 | > 100 | > 100 | > 100 | – | – |
| COC(=O)c1sc2c(=O)c(C(=O)OC)c(C(=O)OC)sc2c(=O)c1C(=O)OC | > 100 | > 100 | > 100 | > 100 | > 100 | > 100 | > 100 | > 100 | > 100 | > 100 | > 100 | > 100 | > 100 | > 100 | > 100 | > 100 | > 100 | – | – |
| N#CC1(C#N)[C@@H]2CCC=C(Sc3ccccc3)[C@@H]21 | 34.7 | 37.6 | 43.7 | 44.4 | 26.3 | 49.9 | 35.4 | 23.4 | 29 | 28.5 | 39 | 28.3 | 31.2 | 29.6 | – | 32 | 30.1 | – | – |
| CCc1ccc(Cc2ccc(CC)c(NC(=O)C(=O)C3NC(=S)NC3=O)c2CC)c(CC)c1NC(=O)C(=O)C1NC(=S)NC1=O (configuration not stated) | > 100 | > 100 | – | – | > 100 | > 100 | > 100 | – | > 100 | > 100 | > 100 | > 100 | > 100 | > 100 | > 100 | > 100 | > 100 | > 100 | > 100 |
| Cc1nc(-n2nc(-c3ccccc3)cc2-c2ccccc2)sc1C(=O)/C=C/c1ccc([N+](=O)[O-])cc1 | 18.8 | > 53.9 | > 100 | 39.5 | 49.3 | 55.9 | > 100 | > 100 | > 100 | 38.1 | > 87.6 | > 100 | > 31.6 | 28.3 | > 54 | > 100 | > 47.6 | > 100 | > 100 |
| O=C(Nc1ccccc1)c1cc(S(=O)(=O)N2CCNC2=O)c(S)cc1Cl | > 100 | > 100 | > 100 | > 100 | > 100 | > 100 | > 100 | > 100 | > 100 | > 100 | > 100 | > 100 | > 100 | > 100 | > 100 | > 100 | > 100 | – | – |
